Literature values in patent publication US9493446B2, “Orexin receptor antagonists which are [ortho bi-(hetero-)aryl]-[2-(meta bi-(hetero-)aryl)-pyrrolidin-1-yl]-methanone derivatives” (Actelion Pharmaceuticals Ltd, priority 2012, dated 2016).

Tests used:
orexin-1 = orexin-1 (Homo sapiens (Human), UniProt O43613); conditions: cited from earlier work
humans = conditions: primary insomnia; cited from earlier work
rat [1] = conditions: cited from earlier work
rats = conditions: cited from earlier work
rat [2] = conditions: cited from earlier work; remark: listed apart in the source
[3] = test system: amyloid precursor protein transgenic mice; conditions: after acute sleep restriction, APP transgenic mice; cited from earlier work
mouse = conditions: administered chronically; cited from earlier work
fasted hungry rats = fasted hungry rats exposed to food odors; cited from earlier work
rat [4] = conditions: cited from earlier work; remark: listed apart in the source
rodents [5] = conditions: conditioned reinforcer; cited from earlier work
rodents [6] = conditions: cited from earlier work

orexin-1, sequence (O43613 whole entry): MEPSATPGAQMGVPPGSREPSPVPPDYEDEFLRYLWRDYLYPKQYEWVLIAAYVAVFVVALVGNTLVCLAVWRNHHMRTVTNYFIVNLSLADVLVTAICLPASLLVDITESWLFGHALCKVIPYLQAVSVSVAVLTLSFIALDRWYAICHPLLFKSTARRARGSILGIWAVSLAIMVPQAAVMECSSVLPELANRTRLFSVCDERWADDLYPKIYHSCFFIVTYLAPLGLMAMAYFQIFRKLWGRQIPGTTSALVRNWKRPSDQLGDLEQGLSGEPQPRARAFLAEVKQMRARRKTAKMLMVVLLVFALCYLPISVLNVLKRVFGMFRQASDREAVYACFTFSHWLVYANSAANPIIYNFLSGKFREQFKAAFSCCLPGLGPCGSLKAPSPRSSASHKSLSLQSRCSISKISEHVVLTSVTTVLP

Cc1nc(C(=O)N2CCC[C@H]2Cc2nnc(-c3ccccc3)o2)c(-c2ccccc2F)s1 [1-(5-(2-fluoro-phenyl)-2-methyl-thiazol-4-yl)-1-[(S)-2-(5-phenyl-[1,3,4]oxadiazol-2-ylmethyl)-pyrrolidin-1-yl)-methanone]
orexin receptor selectivity (orexin-1): highly orexin-1 selective

CNC(=O)[C@@H](c1ccccc1)N1CCc2cc(OC)c(OC)cc2[C@@H]1CCc1ccc(C(F)(F)F)cc1 [(2R)-2-{(1S)-6,7-dimethoxy-1-[2-(4-trifluoromethyl-phenyl)-ethyl]-3,4-dihydro-1H-isoquinolin-2-yl}-N-methyl-2-phenyl-acetamide]
clinical efficacy (humans): showed clinical efficacy
alertness (active wake and locomotion) (rat [1]): decrease alertness
time spent in REM and NREM sleep (rat [1]): dose-dependently increase the time spent in both REM and NREM sleep
cardiovascular responses to conditioned fear and novelty exposure (rats): attenuated cardiovascular responses to conditioned fear and novelty exposure
activity in fear-potentiated startle paradigm (rat [2]): active
brain levels of amyloid-beta and plaque deposition [3]: decreased brain levels of amyloid-beta (Aβ) as well as Aβ plaque deposition
antidepressant-like activity (mouse): induce antidepressant-like activity
natural activation induced by orexin A (fasted hungry rats): attenuate the natural activation induced by orexin A
pharmacological activity in nicotine self-administration (rat [4]): displayed pharmacological activity

Cn1c(SCC(=O)N2CCC[C@H]2C(=O)Nc2ccccc2-c2ccccc2)nc2ccccc21 [N-Biphenyl-2-yl-1-{[(1-methyl-1H-benzimidazol-2-yl)sulfanyl]acetyl}-L-prolinamide]
nicotine-reinstatement (rodents [5]): inhibited nicotine-reinstatement for a conditioned reinforcer
behavioral and molecular changes induced by repeated amphetamine (rodents [6]): reduced behavioral (locomotor sensitization) and molecular (transcriptional responses) changes
